{"source": "patent US11752150B2", "about": "“Anti-tumor immunotherapy enhancer” (Nobuo Tsukamoto, priority 2017, dated 2023)", "system": "mouse cancer cells MCA205 IDO1WT", "assay": "Tumor volume in C57BL/6 mice implanted with MCA205 IDO1WT cells (1-MT and Y15)", "format": "in vivo", "settings": "MCA205 IDO1WT in C57BL/6; Y15 600 μg/animal i.p. once a day from Day 5; 1-MT 4 mg/mL in drinking water from Day 5; n=5; FIG. 23", "experimental": "On Day 0, 5×10^5 mouse cancer cells MCA205 IDO1WT expressing the wild-type mouse IDO1 gene were implanted into the ventral side of C57BL/6 mice.\nThe FAK inhibitor Y15 (MedChem Express) was dissolved in PBS and administered intraperitoneally once a day from Day 5 at 600 μg/100 μl/animal. In the control group, PBS was intraperitoneally administered at 100 μl/animal once a day from Day 5.\nThe major axis and minor axis of the tumor were measured every two days. The tumor volume was calculated as 0.5×(major axis)×(minor axis)^2."}
{"compound": "Cl.Cl.Cl.Cl.Nc1cc(N)c(N)cc1N", "note": "[Y15, 1,2,4,5-benzenetetraamine tetrahydrochloride]", "values": [{"measurement": "tumor volume", "result": "a smaller tumor was formed as compared with the group to which neither drug was administered"}]}
